Data on one compound can be found in patent US20060252683A1, “Preparation of a peptide compound (SYRAPRO-2000) and its use for the activation of protein phosphatase-2A1 enzyme” (priority 2005, published 2006).

For one data set, the system named is SK—N—SH cells. As to the kind of experiment: Cell viability (tryphan blue) and cell death of SK-N-SH cells. The following applies: 2000 nM, 8 days. In kind it is cell-based, human. As to the method: (§1) Panel A, SK—N—SH cells (a human neuroblastoma cell line) were grown in DMEM and 5% (v/v) fetal bovine serum. Cells (10^6 cells per ml) were treated (+) or not (−) with 2000 nM SYRAPRO-2000. Cell viability was then determined by counting the cells following tryphan blue staining after 4, 8 and 12 days of incubation. Panel B, Following treatment with or without SYRAPRO-2000 for 8 days, SK—N—SH cells grown on slides were analyzed by phase contrast microscopy (Row A), by fluorescence microscopy following staining with FITC labeled annexin V (apoptotic cell death) (Row B) or propidium iodide (oncolytic cell death) on a on a Zeiss Axioplan 2 imaging universal microscope (Thornwood, N.Y.). Phase contrast images and Green (FITC labeled annexin V) and red (propidium iodide) fluorescence images were obtained. […]
(§2) SK—N—SH cells are grown in DMEM supplemented with 5% (v/v) fetal bovine serum and antibiotics and treated or not with 2 μM SYRAPRO-2000 for 8 days. Following treatment with SYRAPRO-2000, cell viability are then determined by counting the cells following tryphan blue staining. […] Following treatment with SYRAPRO-2000, cells grown on slides by were analyzed by phase contrast microscopy and fluorescence microscopy following staining with FITC labeled annexin V (an indicator of apoptotic cell death) or propidium iodide (an indicator of oncolytic or necrotic cell death). […]

Assay in data set [1]: as above
Format: cell-based, human. The following applies: human, SK-N-SH cells (neuroblastoma cell line), 2000 nM, 4 days of incubation, read-out: treated cells non viable (tryphan blue staining). As to the method: as §1, §2

Structures are written as SMILES.

Regarding `CC[C@H](C)[C@H](NC(=O)[C@H](CCCNC(=N)N)NC(=O)[C@H](CO)NC(=O)[C@H](Cc1c[nH]cn1)NC(=O)[C@H](CCCNC(=N)N)NC(=O)[C@H](CS)NC(=O)CNC(=O)[C@@H](NC(=O)[C@H](CCCNC(=N)N)NC(=O)[C@H](Cc1ccccc1)NC(=O)[C@@H](N)Cc1c[nH]cn1)[C@@H](C)CC)C(=O)NCC(=O)N[C@H](C(=O)N[C@H](C(=O)N[C@@H](CCCNC(=N)N)C(=O)N[C@@H](CCC(N)=O)C(=O)N[C@@H](CCCNC(=N)N)C(=O)N[C@@H](CCCNC(=N)N)C(=O)N[C@@H](C)C(=O)N[C@@H](CCCNC(=N)N)C(=O)N[C@@H](CC(N)=O)C(=O)NCC(=O)N[C@@H](C)C(=O)N[C@@H](CO)C(=O)N[C@@H](CCCNC(=N)N)C(=O)N[C@@H](CO)C(=O)O)[C@@H](C)O)C(C)C` [SYRAPRO-2000], the “mode of cell death (FITC-annexin V and propidium iodide staining)” value in the data set on SK—N—SH cells was “apoptosis and oncolysis”. Further, in data set [1], the cytotoxicity at 4 days, 2 µM was roughly 50%.
